Laboratory results: BindingDB's records for doi:10.1016/j.bmc.2008.10.023 (Polymer Functionalization Group (Ictp, Csic), 2008)

molecular target: Peroxisome proliferator-activated receptor alpha (Homo sapiens) (UniProt Q07869); experiment: Agonist activity at human PPARalpha expressed in human MCF7 cells coexpressing TIF2 by luciferase reporter gene assay
Sequence (Q07869 whole entry, looked up): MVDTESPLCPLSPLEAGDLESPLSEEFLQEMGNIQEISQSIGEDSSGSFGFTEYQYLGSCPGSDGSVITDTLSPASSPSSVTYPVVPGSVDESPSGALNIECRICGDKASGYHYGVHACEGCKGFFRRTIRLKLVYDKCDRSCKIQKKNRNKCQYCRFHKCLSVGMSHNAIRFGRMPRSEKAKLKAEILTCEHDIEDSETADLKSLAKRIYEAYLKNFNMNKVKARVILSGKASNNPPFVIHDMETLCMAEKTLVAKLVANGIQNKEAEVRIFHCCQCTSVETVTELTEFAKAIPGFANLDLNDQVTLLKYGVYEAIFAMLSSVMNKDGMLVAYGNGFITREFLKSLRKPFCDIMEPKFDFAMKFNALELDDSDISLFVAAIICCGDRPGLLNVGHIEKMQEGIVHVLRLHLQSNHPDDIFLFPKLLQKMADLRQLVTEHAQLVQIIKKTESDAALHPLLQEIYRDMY

Row | Structure (SMILES) | EC50 [nM]
1 | CCCCCCCCCCCCCCCCNC(=O)c1cc(-c2ccc(Cl)cc2)n(-c2ccc(Cl)cc2)n1 | > 10000
2 | CCCCCCCC/C=C\CCCCCCCCNC(=O)c1cc(-c2ccc(Cl)cc2)n(-c2ccc(Cl)cc2)n1 | 524
3 | CCCCCCCCCCCCCCCCNC(=O)c1cc(-c2ccc(Cl)cc2)n(-c2ccccc2)n1 | > 10000
4 | CCCCCCCC/C=C\CCCCCCCCNC(=O)c1cc(-c2ccc(Cl)cc2)n(-c2ccccc2)n1 | 183

Other lines, results leading:

Row | EC50 [nM] | Structure (SMILES)
5 | > 10000 | CCCCCCCCCCCCCCCCNC(=O)c1cc(-c2ccc(Cl)cc2)n(-c2ccc(Cl)cc2Cl)n1
6 | 467 | CCCCCCCC/C=C\CCCCCCCCNC(=O)c1nn(-c2ccc(Cl)cc2Cl)c(-c2ccc(Cl)cc2)c1C
7 | 223 | CCCCCCCC/C=C\CCCCCCCCNC(=O)c1cc(-c2ccc(Cl)cc2)n(-c2ccc(Cl)cc2Cl)n1
8 | > 10000 | CCCCCCCCCCCCCCCCNC(=O)c1nn(-c2ccc(Cl)cc2Cl)c(-c2ccc(Cl)cc2)c1C
